Test results: patent US20250230155A1 (Vanderbilt University, priority 2021, published 2025)
pEC50: −log10 of the molar value.

Molecular target: T1, human mAChR M4 (Homo sapiens, UniProt P08173)
T1 construct: expressed in transfected cells
T1 sequence (P08173 1-479): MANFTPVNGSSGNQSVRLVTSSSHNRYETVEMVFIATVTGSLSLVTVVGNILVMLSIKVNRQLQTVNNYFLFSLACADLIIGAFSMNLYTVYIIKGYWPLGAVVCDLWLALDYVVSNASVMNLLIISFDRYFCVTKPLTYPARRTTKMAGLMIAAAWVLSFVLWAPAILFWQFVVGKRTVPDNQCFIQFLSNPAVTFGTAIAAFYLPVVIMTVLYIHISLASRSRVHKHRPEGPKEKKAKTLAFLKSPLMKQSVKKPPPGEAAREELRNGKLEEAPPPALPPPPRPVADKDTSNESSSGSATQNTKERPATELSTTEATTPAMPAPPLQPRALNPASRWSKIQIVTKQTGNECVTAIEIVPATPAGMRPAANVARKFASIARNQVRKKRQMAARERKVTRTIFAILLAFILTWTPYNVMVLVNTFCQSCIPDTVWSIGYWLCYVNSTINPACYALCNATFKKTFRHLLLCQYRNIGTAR
Experiment: mAChR M4 cell-based functional assay (calcium mobilization, CHO-K1 hM4-Gqi5 cells)
Conditions: for Emax at 30 µM: CHO-K1, % ACh maximum at 30 μM, human M4; for pEC50: positive allosteric modulator activity, increase in the EC20 acetylcholine response, CHO-K1 hM4-Gqi5 cells, read-out: Human M4 EC50
In short: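 Fluorescent calcium read-out (Fluo-4 AM, FDSS, 1 Hz) in hM4-Gqi5 CHO-K1 cells, 11-point 1:3 compound series. Agonism scored on compound addition, PAM activity as increase of the 144 s EC20 acetylcholine response, antagonism as decrease of the 230 s EC80 response; four-parameter logistic fits give EC50 and Emax.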

Emax at 30 µM	pEC50	SMILES
82%	5.84	Cc1c(Cl)nc(C(F)(F)F)nc1N1CCc2ncc(Nc3cccnc3F)cc2C1 [compound 249, 6-(6-chloro-5-methyl-2-(trifluoromethyl)pyrimidin-4-yl)-N-(2-fluoropyridin-3-yl)-5,6,7,8-tetrahydro-1,6-naphthyridin-3-amine]
83%	6.12	Cc1nc(Cl)c(C)c(N2CCc3nc(C(F)(F)F)ccc3C2)n1 [compound 218, 6-(6-chloro-2,5-dimethylpyrimidin-4-yl)-2-(trifluoromethyl)-5,6,7,8-tetrahydro-1,6-naphthyridine]
63%	5.41	Cc1cc(C(=O)NCc2cnc3c(c2)CCC3)cnc1N1CCc2ncccc2C1 [compound 155, N-(6,7-dihydro-5H-cyclopenta[b]pyridin-3-ylmethyl)-6-(7,8-dihydro-5H-1,6-naphthyridin-6-yl)-5-methyl-pyridine-3-carboxamide]
75%	5.99	Cc1nc(C(F)(F)F)nc(N2CCc3ncc(C(F)(F)F)cc3C2)c1C [compound 252, 6-(5,6-dimethyl-2-(trifluoromethyl)pyrimidin-4-yl)-3-(trifluoromethyl)-5,6,7,8-tetrahydro-1,6-naphthyridine]
66%	6.05	Cc1nc(C)c(C)c(N2CCc3ncc(-c4ccc(N5CCC(F)(F)C5)nc4)cc3C2)n1 [compound 228, 3-(6-(3,3-difluoropyrrolidin-1-yl)pyridin-3-yl)-6-(2,5,6-trimethylpyrimidin-4-yl)-5,6,7,8-tetrahydro-1,6-naphthyridine]

More lines, now with the values behind:

SMILES	Emax at 30 µM	pEC50
Cc1ncc(-c2cnc3c(c2)CN(c2nnc(C#N)cc2C)CC3)s1 [Example 390, 5-methyl-6-(3-(2-methylthiazol-5-yl)-7,8-dihydro-1,6-naphthyridin-6(5H)-yl)pyridazine-3-carbonitrile]	78%	6.36
Cc1cc(C(=O)NC2CN(CC(F)(F)F)C2)nnc1N1CCc2ncc(N3CCCn4nccc43)cc2C1 [Example 520, 6-(3-(6,7-dihydropyrazolo[1,5-a]pyrimidin-4(5H)-yl)-7,8-dihydro-1,6-naphthyridin-6(5H)-yl)-5-methyl-N-(1-(2,2,2-trifluoroethyl)azetidin-3-yl)pyridazine-3-carboxamide]	104%	7.37
Cc1cc(C(=O)N2CC(C(F)F)C2)nnc1N1CCc2ncc(-c3ccnn3C)cc2C1 [Example 562, (3-(difluoromethyl)azetidin-1-yl)(5-methyl-6-(3-(1-methyl-1H-pyrazol-5-yl)-7,8-dihydro-1,6-naphthyridin-6(5H)-yl)pyridazin-3-yl)methanone]	74%	7.04
[2H]C1([2H])Cc2ncc(Nc3cc(C)ncc3F)cc2C([2H])([2H])N1c1nnc(C#N)c(C)c1C [Example 600, 6-(3-((5-fluoro-2-methylpyridin-4-yl)amino)-7,8-dihydro-1,6-naphthyridin-6(5H)-yl-5,5,7,7-d4)-4,5-dimethylpyridazine-3-carbonitrile]	92%	7.59
Cc1cc(C#N)cnc1N1CCc2ncc(-n3cccn3)cc2C1 [Example 344, 6-(3-(1H-pyrazol-1-yl)-7,8-dihydro-1,6-naphthyridin-6(5H)-yl)-5-methylnicotinonitrile]	88%	6.42
Cc1nc(C)c(C)c(N2CCc3ncc(-c4ccc(N5CCOCC5)nc4)cc3C2)n1 [compound 227, 4-(5-(6-(2,5,6-trimethylpyrimidin-4-yl)-5,6,7,8-tetrahydro-1,6-naphthyridin-3-yl)pyridin-2-yl)morpholine]	67%	6.58
COC1CN(C(=O)c2cc(C)c(N3CCc4ncc(CC(F)(F)F)cc4C3)nn2)C1 [Example 589, (3-methoxyazetidin-1-yl)(5-methyl-6-(3-(2,2,2-trifluoroethyl)-7,8-dihydro-1,6-naphthyridin-6(5H)-yl)pyridazin-3-yl)methanone]	99%	6.76
